Test results as given in patent US5587373A, “2-acyloxycephem derivatives” (Farmitalia Carlo Erba S.r.l., priority 1993, dated 1996).
Like-named read-outs stand apart in the source and are kept apart here.

Target: T1, human leucocyte elastase (HLE) (Homo sapiens, UniProt P08246)
T1 construct: purchased Calbiochem
T1 sequence (P08246 30-267): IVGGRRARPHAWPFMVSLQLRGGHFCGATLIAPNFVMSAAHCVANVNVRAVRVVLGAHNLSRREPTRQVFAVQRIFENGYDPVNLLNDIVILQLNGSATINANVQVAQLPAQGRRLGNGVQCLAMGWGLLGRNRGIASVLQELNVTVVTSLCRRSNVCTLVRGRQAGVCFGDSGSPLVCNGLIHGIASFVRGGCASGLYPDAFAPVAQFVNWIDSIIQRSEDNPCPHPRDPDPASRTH
Test: HLE (human leucocyte elastase) inhibition kinetics
Format: biochemical
Details: 37° C., pH 7.4; for kinact/KI: rate of formation of the HLE-inhibitor complex, read-out: "Efficacy" K5 /Ki
Text: Vs =steady state rate Vz =zero time rate Vo =rate at [I]=0 Km =Michaelis constant for the enzyme substrate pair (independently determined under the same experimental conditions). Full details of the Experimental Protocol are reported in […] et al., Eur. J. Med. Chem. 1992, 27, 875-890.

[1] = Table 2, apparent dissociation constant of HLE-inhibitor complex at steady rate, read-out: Potency Ki^SS
[2] = Table 3, * outside determination limits
[3] = Table 3, * outside determination limits, read-out: "Potency" Ki ^33

Compound CO[C@H]1C(=O)N2C(C(=O)C(C)(C)C)=C(C)C(OC(=O)c3ccccc3)S(=O)(=O)[C@H]12 (stereo partly drawn) [Compound 2, 2-Benzoyloxy-4-tert-butylcarbonyl-7α-methoxy-3-methyl-3-cephem 1,1-dioxide] has a Ki [1] of less than 0.002 µM.

CO[C@H]1C(=O)N2C(C(=O)C(C)(C)C)=C(C)C(OC(=O)c3ccc4ccccc4c3)S(=O)(=O)[C@H]12 (stereo partly drawn) [Compound 11] was tested, and the “"Efficacy" K5 /K1” value [2] was less than 2 M⁻¹ s⁻¹.

For CO[C@H]1C(=O)N2C(C(=O)C(C)(C)C)=C(CSc3nnnn3C)C(OC(=O)c3ccccc3)S(=O)(=O)[C@H]12 (stereo partly drawn) [Compound 19, 2-Benzoyloxy-4-tert-butylcarbonyl-7α-methoxy-3-(1-methyl-1,2,3,4-tetrazol-5-yl)thiomethyl-3-cephem 1,1-dioxide], the “"Efficacy" K5 /K1” value [2] was less than 2 M⁻¹ s⁻¹.

With CO[C@H]1C(=O)N2C(C(=O)c3ccccc3)=C(C)C(OC(=O)c3ccccc3)S(=O)(=O)[C@H]12 (stereo partly drawn) [Compound 24, 2-Benzoyloxy-7α-methoxy-3-methyl-4-phenylcarbonyl-3-cephem 1,1-dioxide] the “"Efficacy" K5 /K1” value [2] was 8 M⁻¹ s⁻¹.

With CO[C@H]1C(=O)N2C(C(=O)c3ccccc3)=C(C)C(OC(=O)c3ccc(C(=O)O)cc3)S(=O)(=O)[C@H]12 (stereo partly drawn) [Compound 25, 4-Benzoyl-2-(4-carboxybenzoyl)oxy-7α-methoxy-3-methyl-3-cephem 1,1-dioxide] the “"Efficacy" K5 /K1” value [2] was 29 M⁻¹ s⁻¹ and the Ki [3] was 34 µM.

With CO[C@H]1C(=O)N2C(C(=O)C(C)(C)C)=C(C)C(OC(=O)c3ccc(CSc4nc(=O)c(O)nn4C)cc3)S(=O)(=O)[C@H]12 (stereo partly drawn) [Compound 38, 4-tert-Butylcarbonyl-2-{4-[(2,5-dihydro-6-hydroxy-2-methyl-5-oxo-1,2,4-triazin-3-yl)thiomethyl]benzoyloxy}-7α-methoxy-3-methyl-3-cephem 1,1-dioxide] the “"Efficacy" K5 /K1” value [2] was less than 2 M⁻¹ s⁻¹ and the Ki [3] was 700 µM.

CO[C@H]1C(=O)N2C(C(=O)C(C)(C)C)=C(C)C(OC(=O)c3ccc(C(=O)c4ccccc4)cc3)S(=O)(=O)[C@H]12 (stereo partly drawn) [Compound 83, 2-[4-(Benzoyl)benzoyloxy]-4-tert-butylcarbonyl-7α-methoxy-3-methyl-3-cephem 1,1-dioxide] was tested, and the “"Efficacy" K5 /K1” value [2] was 2 M⁻¹ s⁻¹ and the Ki [3] was 500 µM.

For CCCCC(CC)C(=O)OC1C(C)=C(C(=O)C(C)(C)C)N2C(=O)[C@H](OC)[C@H]2S1(=O)=O (stereo partly drawn) [Compound 96, 4-tert-Butylcarbonyl-2-(2-ethylhexanoyl)oxy-7α-methoxy-3-methyl-3-cephem 1,1-dioxide], the “"Efficacy" K5 /K1” value [2] was less than 2 M⁻¹ s⁻¹.

CO[C@H]1C(=O)N2C(C(=O)C(C)(C)C)=C(C)CS(=O)(=O)[C@H]12 [FCE 25500, reference compound] was tested, and the Ki [1] was 1.3 µM and the kinact/KI (Table 2) was 60 M⁻¹ s⁻¹.

CO[C@H]1C(=O)N2C(C(=O)N3CCCC3)=C(CSc3nc(=O)c(O)nn3C)CS(=O)(=O)[C@H]12 [L-659,286, reference compound] was tested, and the Ki [1] was 0.075 µM and the kinact/KI (Table 2) was 9200 M⁻¹ s⁻¹.
